Assay results taken from ChEMBL document CHEMBL1201862, “PubChem BioAssay data set” (2004).
Active and inactive are the calls of the source.

Experiments:
[1] = biological target: T1, DNA dC->dU-editing enzyme APOBEC-3G (Homo sapiens, UniProt Q9HC16); experiment: inhibition of APOBEC3G ssDNA deamination – biochemical, fluorescence, single-stranded DNA substrate, SAR follow-up (AID 602136); format: functional; settings: read-out: IC50_Mean
[2] = biological target: T2, DNA dC->dU-editing enzyme APOBEC-3A (Homo sapiens, UniProt P31941); experiment: SAR analysis of small molecule inhibitors of APOBEC3A DNA Deaminase via a fluorescence-based single-stranded DNA deaminase assay.; format: functional; settings: read-out: IC50_Mean
T2 sequence (P31941 whole entry): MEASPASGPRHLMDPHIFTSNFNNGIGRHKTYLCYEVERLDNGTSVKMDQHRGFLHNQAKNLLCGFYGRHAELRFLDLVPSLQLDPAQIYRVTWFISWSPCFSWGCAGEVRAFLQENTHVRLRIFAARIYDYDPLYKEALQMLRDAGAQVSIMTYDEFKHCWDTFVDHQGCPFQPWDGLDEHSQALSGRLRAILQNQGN

[3] = biological target: Dual specificity protein kinase CLK4 (Homo sapiens, UniProt Q9HAZ1); format: functional
[4] = biological target: Casein kinase I isoform alpha (Homo sapiens, UniProt P48729); format: functional
[5] = biological target: Death-associated protein kinase 3 (Homo sapiens, UniProt O43293); format: functional;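 further: measured as one member of a kinome-wide profiling panel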
[6] = biological target: Macrophage-stimulating protein receptor (Homo sapiens, UniProt Q04912); experiment: Navigating the Kinome. Panel member name: MST1R; format: functional
[7] = biological target: Mitogen-activated protein kinase kinase kinase kinase 2 (Homo sapiens, UniProt Q12851); format: functional;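 further: measured as one member of a kinome-wide kinase panel, with MAP4K2 as the panel entry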
[8] = biological target: Serine/threonine-protein kinase D3 (Homo sapiens, UniProt O94806); format: functional;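 further: determined within a kinase panel screen, with PRKCN as the panel member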
[9] = biological target: BDNF/NT-3 growth factors receptor (Homo sapiens, UniProt Q16620); format: functional;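 further: NTRK2 measured as one member of a broad kinome-wide kinase profiling panel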
Chain of BDNF/NT-3 growth factors receptor (Q16620 whole entry): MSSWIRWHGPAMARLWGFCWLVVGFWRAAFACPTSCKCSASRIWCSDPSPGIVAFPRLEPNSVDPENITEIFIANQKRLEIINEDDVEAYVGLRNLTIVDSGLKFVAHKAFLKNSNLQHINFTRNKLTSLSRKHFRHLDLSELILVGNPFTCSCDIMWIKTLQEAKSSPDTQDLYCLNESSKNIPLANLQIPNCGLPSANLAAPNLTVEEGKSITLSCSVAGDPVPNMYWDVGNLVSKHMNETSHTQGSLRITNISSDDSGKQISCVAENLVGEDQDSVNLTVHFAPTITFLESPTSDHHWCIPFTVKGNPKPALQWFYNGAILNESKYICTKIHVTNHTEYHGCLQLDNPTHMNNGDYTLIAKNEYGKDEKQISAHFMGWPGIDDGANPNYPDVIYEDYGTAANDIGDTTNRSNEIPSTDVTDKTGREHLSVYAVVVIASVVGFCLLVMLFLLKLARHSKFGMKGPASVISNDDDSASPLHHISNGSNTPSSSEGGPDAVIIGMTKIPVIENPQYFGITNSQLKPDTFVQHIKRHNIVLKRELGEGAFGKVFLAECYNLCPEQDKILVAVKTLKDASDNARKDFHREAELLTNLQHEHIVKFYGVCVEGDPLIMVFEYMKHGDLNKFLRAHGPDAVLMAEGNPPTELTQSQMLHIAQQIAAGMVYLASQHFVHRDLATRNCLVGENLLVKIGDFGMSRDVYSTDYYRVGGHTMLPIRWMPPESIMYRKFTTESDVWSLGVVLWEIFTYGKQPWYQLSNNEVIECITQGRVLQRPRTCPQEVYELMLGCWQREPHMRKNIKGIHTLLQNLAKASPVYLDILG

[10] = biological target: MAP/microtubule affinity-regulating kinase 4 (Homo sapiens, UniProt Q96L34); experiment: Navigating the Kinome. Panel member name: MARK4; format: functional
[11] = biological target: Tyrosine-protein kinase receptor TYRO3 (Homo sapiens, UniProt Q06418); format: functional;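 further: TYRO3 value obtained as one member of a kinome-wide profiling panel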
[12] = biological target: Leukocyte tyrosine kinase receptor (Homo sapiens, UniProt P29376); experiment: Navigating the Kinome. Panel member name: LTK; format: functional
[13] = biological target: MAP/microtubule affinity-regulating kinase 3 (Homo sapiens, UniProt P27448); format: functional;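 further: MARK3 affinity measured as one member of a kinome panel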
Chain of MAP/microtubule affinity-regulating kinase 3 (P27448 whole entry): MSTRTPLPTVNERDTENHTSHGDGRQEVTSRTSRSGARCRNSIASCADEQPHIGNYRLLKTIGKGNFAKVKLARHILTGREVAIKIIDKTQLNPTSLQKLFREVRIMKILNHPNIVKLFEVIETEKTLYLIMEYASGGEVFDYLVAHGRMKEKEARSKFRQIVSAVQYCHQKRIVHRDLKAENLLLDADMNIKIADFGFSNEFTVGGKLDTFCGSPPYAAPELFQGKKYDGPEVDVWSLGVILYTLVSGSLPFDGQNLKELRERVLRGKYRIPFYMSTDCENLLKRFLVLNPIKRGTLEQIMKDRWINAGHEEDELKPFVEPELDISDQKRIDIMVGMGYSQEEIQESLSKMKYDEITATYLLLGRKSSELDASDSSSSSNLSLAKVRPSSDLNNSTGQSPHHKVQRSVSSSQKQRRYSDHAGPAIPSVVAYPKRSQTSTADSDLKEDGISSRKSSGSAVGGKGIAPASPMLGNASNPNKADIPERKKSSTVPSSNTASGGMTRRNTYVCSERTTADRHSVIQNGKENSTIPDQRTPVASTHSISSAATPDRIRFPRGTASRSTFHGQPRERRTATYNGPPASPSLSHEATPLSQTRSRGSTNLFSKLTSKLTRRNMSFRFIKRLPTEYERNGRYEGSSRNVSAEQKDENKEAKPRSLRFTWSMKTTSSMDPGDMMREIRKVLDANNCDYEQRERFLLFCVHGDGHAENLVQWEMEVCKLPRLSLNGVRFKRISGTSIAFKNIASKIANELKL

[14] = biological target: Serine/threonine-protein kinase TAO1 (Homo sapiens, UniProt Q7L7X3); format: functional
[15] = biological target: Serine/threonine-protein kinase SIK2 (Homo sapiens, UniProt Q9H0K1); experiment: Navigating the Kinome. Panel member name: SIK2; format: functional
[16] = biological target: Maternal embryonic leucine zipper kinase (Homo sapiens, UniProt Q14680); format: functional
[17] = biological target: Glycogen synthase kinase-3 alpha (Homo sapiens, UniProt P49840); format: functional;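 further: GSK3A result taken from a broad kinome-wide kinase panel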
[18] = biological target: Dual specificity tyrosine-phosphorylation-regulated kinase 1B (Homo sapiens, UniProt Q9Y463); experiment: Navigating the Kinome. Panel member name: DYRK1B; format: functional
[19] = biological target: Proto-oncogene tyrosine-protein kinase ROS (Homo sapiens, UniProt P08922); format: functional;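 further: ROS1 tested as one member of a kinome-wide kinase panel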
[20] = biological target: T2, DNA dC->dU-editing enzyme APOBEC-3A; experiment: SAR analysis of small molecule inhibitors of APOBEC3A DNA Deaminase via a fluorescence-based single-stranded DNA deaminase assay - Set 2.; format: functional; settings: read-out: IC50_Mean
[21] = biological target: T1, DNA dC->dU-editing enzyme APOBEC-3G; experiment: SAR analysis of small molecule inhibitors of APOBEC3G DNA Deaminase via a fluorescence-based single-stranded DNA deaminase assay - Set 2.; format: functional; settings: read-out: IC50_Mean
[22] = biological target: T3, Ubiquitin-conjugating enzyme E2 N (Homo sapiens, UniProt P61088); format: functional;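 further: Dose-response confirmation in a TR-FRET assay detecting UBC13-driven polyubiquitin chain formation, inhibition measured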
T3 sequence (P61088 whole entry): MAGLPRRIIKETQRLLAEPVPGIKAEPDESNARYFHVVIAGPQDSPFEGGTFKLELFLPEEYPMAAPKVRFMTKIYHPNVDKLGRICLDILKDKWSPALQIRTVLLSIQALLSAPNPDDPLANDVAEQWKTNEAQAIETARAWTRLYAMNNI

[23] = biological target: T4, Insulin-degrading enzyme (Homo sapiens, UniProt P14735); experiment: cellular IDE activation of Abeta substrate cleavage – fluorescence polarization, HEK cells, dose response (AID 588439); format: functional, cell-based
T4 sequence (P14735 whole entry): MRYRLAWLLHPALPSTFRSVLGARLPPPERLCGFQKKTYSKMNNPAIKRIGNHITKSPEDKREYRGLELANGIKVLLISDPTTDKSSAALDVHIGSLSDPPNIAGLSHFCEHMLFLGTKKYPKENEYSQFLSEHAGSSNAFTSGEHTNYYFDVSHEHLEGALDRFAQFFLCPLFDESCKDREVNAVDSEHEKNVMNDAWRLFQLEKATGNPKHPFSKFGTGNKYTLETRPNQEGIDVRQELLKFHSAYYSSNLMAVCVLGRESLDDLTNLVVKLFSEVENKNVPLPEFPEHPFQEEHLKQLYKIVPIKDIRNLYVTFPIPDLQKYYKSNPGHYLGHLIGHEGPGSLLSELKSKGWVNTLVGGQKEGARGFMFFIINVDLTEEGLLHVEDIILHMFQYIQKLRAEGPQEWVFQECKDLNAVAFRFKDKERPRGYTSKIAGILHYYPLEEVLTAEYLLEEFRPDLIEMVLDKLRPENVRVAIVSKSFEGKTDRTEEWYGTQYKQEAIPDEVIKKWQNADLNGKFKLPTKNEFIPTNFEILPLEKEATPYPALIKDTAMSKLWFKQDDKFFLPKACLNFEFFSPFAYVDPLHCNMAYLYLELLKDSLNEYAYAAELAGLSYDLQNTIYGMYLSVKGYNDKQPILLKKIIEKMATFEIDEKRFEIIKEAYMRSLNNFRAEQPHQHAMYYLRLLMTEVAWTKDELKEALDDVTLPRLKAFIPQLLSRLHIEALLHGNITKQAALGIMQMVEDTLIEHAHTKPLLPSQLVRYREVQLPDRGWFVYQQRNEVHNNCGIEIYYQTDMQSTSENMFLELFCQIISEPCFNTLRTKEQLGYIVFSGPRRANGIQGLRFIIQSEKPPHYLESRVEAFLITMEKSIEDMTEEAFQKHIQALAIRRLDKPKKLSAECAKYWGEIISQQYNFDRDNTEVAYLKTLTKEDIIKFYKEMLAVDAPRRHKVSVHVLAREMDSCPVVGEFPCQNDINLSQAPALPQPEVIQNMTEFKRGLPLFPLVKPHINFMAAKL

[24] = tested on: INS1; experiment: INS-1E survival protection against cytokine death – cell-based, luminescence, retest, dose response (AID 449756); format: functional; settings: Rattus norvegicus;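 further: cell death triggered by IL-1 beta plus TNF-alpha plus IFN-gamma mixture; protective hits raise ATP signal compared with cytokine alone wells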
[25] = tested on: BJ; experiment: BJ-TERT fibroblast viability loss – cell-based, RAS-independent, luminescence, dose response (AID 1933); format: functional; settings: Homo sapiens
[26] = biological target: G-protein coupled receptor 55 (Homo sapiens, UniProt Q9Y2T6); experiment: inhibition of LPI-stimulated GPR55 beta-arrestin translocation – imaging, U2OS, beta-arrestin-GFP, LPI agonist, primary screen (AID 2013); format: functional;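 further: antagonist potency measured as reduced agonist-driven arrestin aggregation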
[27] = biological target: T4, Insulin-degrading enzyme; experiment: recombinant IDE activation, cell-free – biochemical, fluorescence polarization, counter-screen for IDE activator project, dose response (AID 588681)
[28] = tested on: HEK293; experiment: membrane integrity loss in HEK cells – cell-based, fluorescence, cytotoxicity control for IDE activator project, dose response (AID 588440); format: functional; settings: Homo sapiens;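 further: cytotoxicity by LDH release measuring loss of membrane integrity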
[29] = DRD fibroblast viability loss – cell-based, non-viral oncogenic, luminescence, dose response (AID 1934); format: functional; settings: Homo sapiens
[30] = Luminescence Cell-Based Dose Response HTS to Identify Inhibitors of 5'UTR Stem-Loop Driven Prion Protein mRNA Translation in H4 Neuroglioblastoma Cells. [Related pubchem assays: 1827 (Project Summary), 1813 (Primary HTS)]; format: functional
[31] = tested on: BJ; experiment: cells; format: functional, cell-based; settings: Homo sapiens
[32] = alpha-synuclein stem-loop luciferase translation blockers – H4 neuroglioma cells, luminescence, confirmation (AID 1988); format: functional, cell-based
[33] = tested on: BJ; experiment: growth inhibition of engineered Ras-driven BJ cells – cell-based, alamar blue fluorescence, cherrypicked samples, dose response (AID 2631); format: functional; settings: Homo sapiens;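 further: confirmatory dose-response assay in RAS-dependent BJ fibroblasts engineered with TERT, LT and ST, with cytotoxicity read by fluorescence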
[34] = luciferase reporter signal suppression in cells – H4 neuroglioma cells, luminescence, dose response (AID 1990); format: functional, cell-based
[35] = tested on: BJ; experiment: BJ-TERT-LT-ST fibroblast viability loss – cell-based, RAS-independent, luminescence, dose response (AID 1935); format: functional; settings: Homo sapiens;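 further: BJ fibroblasts immortalized with TERT plus LT and ST oncogenes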
[36] = tested on: HEK293; experiment: optical interference in Abeta FP readout, dose response, artefact control for IDE activator project, biochemical, fluorescence polarization (AID 588442); format: functional, cell-based; settings: Homo sapiens
[37] = biological target: Multidrug resistance protein CDR2 (Candida albicans (strain SC5314 / ATCC MYA-2876) (Yeast), UniProt P78595); experiment: inhibition of Nile Red efflux via Candida CDR2 – S. cerevisiae AD1-8u, singleplex, Cherry Pick1 hits, dose response (AID 588604); format: functional
[38] = biological target: Ribosomal protein S6 kinase alpha-3 (Homo sapiens, UniProt P51812); format: functional;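 further: measured within a kinome-wide profiling panel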
[39] = biological target: Ribosomal protein S6 kinase beta-1 (Homo sapiens, UniProt P23443); format: functional;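 further: measured as one member of a kinome-wide profiling panel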
[40] = biological target: Glycogen synthase kinase-3 beta (Homo sapiens, UniProt P49841); format: functional;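 further: value comes from a broad kinome profiling panel, with GSK3B as the panel member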
Chain of Glycogen synthase kinase-3 beta (P49841 whole entry): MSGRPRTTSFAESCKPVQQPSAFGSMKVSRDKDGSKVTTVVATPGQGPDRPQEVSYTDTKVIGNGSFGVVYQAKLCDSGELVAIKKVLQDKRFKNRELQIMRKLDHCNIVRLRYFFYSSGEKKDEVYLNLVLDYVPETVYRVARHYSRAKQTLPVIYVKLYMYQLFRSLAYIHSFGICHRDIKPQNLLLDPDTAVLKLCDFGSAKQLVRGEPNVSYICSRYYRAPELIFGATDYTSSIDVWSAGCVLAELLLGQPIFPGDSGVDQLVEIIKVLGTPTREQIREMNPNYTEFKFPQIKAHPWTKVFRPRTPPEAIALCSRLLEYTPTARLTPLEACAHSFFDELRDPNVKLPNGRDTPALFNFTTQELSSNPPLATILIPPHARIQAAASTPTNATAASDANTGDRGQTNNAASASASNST

[41] = biological target: MAP kinase-activated protein kinase 2 (Homo sapiens, UniProt P49137); format: functional;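 further: measured as one member of a kinome-wide kinase panel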
Chain of MAP kinase-activated protein kinase 2 (P49137 whole entry): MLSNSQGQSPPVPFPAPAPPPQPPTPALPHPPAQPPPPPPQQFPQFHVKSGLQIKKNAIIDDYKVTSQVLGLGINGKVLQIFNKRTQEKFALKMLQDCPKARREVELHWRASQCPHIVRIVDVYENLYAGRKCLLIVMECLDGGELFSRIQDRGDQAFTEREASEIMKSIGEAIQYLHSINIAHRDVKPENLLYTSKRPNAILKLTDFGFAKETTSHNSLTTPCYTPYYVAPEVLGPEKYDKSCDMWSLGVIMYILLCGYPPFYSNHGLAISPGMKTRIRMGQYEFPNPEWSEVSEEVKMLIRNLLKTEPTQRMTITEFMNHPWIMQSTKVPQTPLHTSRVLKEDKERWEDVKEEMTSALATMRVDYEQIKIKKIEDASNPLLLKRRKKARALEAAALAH

[42] = biological target: T5, High affinity choline transporter 1 (Homo sapiens, UniProt Q9GZV3); experiment: human choline transporter potentiators, potency – cell-based, 10-point CRC, membrane potential dye, dose response (AID 602376); format: functional
T5 sequence (Q9GZV3 whole entry): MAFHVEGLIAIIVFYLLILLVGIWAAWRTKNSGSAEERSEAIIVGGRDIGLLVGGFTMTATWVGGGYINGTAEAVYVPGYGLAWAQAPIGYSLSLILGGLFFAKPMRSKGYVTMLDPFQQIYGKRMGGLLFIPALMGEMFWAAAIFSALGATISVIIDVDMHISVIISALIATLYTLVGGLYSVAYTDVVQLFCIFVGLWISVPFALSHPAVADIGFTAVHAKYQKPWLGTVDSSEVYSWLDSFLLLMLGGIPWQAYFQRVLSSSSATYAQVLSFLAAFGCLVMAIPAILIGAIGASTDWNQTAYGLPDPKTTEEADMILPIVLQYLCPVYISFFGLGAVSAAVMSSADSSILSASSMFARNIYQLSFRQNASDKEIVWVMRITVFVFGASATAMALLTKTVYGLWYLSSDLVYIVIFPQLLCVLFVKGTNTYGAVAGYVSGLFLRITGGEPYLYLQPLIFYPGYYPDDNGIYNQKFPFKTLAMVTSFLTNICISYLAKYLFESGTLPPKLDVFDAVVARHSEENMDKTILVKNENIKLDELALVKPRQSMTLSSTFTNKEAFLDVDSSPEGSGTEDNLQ

[43] = biological target: T5, High affinity choline transporter 1; experiment: human choline transporter blockers, potency – cell-based, 10-point CRC, membrane potential dye, dose response (AID 588401); format: functional;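 further: membrane potential dye fluorescence of choline-evoked depolarization via CHT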
[44] = biological target: T6, Polyadenylate-binding protein 1 (Homo sapiens, UniProt P11940); experiment: MLLE domain peptide-binding blockers, IC50 – biochemical, fluorescence polarization, FITC-PAM2 peptide, dose response (AID 602259); format: functional; settings: read-out: IC50_Mean
T6 sequence (P11940 whole entry, the tested form may be a part): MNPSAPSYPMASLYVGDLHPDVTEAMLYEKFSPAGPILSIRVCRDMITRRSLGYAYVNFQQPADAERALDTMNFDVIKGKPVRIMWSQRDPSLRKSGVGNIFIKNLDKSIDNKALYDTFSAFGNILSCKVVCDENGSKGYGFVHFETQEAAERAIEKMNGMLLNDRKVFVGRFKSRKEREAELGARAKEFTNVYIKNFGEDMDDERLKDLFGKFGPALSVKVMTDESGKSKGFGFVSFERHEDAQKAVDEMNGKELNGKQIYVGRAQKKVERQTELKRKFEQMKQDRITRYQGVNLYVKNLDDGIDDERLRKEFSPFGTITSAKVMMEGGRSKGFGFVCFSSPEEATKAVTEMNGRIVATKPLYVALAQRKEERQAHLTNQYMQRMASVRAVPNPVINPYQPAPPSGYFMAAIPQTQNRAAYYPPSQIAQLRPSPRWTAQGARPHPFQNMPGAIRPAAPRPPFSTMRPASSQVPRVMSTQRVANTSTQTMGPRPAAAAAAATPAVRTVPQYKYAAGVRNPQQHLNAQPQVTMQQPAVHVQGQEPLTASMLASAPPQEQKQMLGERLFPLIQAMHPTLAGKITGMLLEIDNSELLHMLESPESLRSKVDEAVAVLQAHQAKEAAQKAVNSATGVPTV

[45] = biological target: T6, Polyadenylate-binding protein 1; experiment: MLLE binding blockers, Cy5 peptide tracer – biochemical, fluorescence polarization, Cy5-PAM2 peptide, secondary, miRNA deadenylation inhibitor project, dose response (AID 602260); format: functional; settings: read-out: IC50_Mean
[46] = biological target: T5, High affinity choline transporter 1; experiment: human choline transporter blockers, potency – cell-based, 5-point CRC, membrane potential dye, dose response (AID 504840); format: functional
[47] = biological target: Melanin-concentrating hormone receptor 1 (Homo sapiens, UniProt Q99705); experiment: Late-stage fluorescence-based counterscreen for antagonists of the G-protein coupled receptor 7 (GPR7): cell-based dose response assay to identify antagonists of the melanin-concentrating hormone receptor 1 (MCHR1) Set 5.; format: functional
Chain of Melanin-concentrating hormone receptor 1 (Q99705 whole entry): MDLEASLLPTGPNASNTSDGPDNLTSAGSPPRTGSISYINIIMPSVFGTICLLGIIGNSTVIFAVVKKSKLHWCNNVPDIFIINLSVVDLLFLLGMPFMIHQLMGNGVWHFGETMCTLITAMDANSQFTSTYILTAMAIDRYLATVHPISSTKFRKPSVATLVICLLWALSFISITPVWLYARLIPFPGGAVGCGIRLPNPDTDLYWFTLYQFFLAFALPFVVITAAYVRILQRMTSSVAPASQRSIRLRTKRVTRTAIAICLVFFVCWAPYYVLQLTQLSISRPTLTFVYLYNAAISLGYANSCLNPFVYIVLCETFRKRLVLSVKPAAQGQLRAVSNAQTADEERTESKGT

[48] = biological target: Protein disulfide-isomerase (Homo sapiens, UniProt P07237); experiment: inhibition of PDI-driven insulin aggregation – biochemical, turbidity, absorbance, cherry-picked samples, dose response (AID 602350); format: functional
[49] = biological target: ALK tyrosine kinase receptor (Homo sapiens, UniProt Q9UM73); format: functional;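 further: ALK tested as one member of a kinase panel screen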
[50] = biological target: Cyclin-dependent kinase 19 (Homo sapiens, UniProt Q9BWU1); experiment: Navigating the Kinome. Panel member name: CDC2L6; format: functional

T1 sequence (Q9HC16 whole entry): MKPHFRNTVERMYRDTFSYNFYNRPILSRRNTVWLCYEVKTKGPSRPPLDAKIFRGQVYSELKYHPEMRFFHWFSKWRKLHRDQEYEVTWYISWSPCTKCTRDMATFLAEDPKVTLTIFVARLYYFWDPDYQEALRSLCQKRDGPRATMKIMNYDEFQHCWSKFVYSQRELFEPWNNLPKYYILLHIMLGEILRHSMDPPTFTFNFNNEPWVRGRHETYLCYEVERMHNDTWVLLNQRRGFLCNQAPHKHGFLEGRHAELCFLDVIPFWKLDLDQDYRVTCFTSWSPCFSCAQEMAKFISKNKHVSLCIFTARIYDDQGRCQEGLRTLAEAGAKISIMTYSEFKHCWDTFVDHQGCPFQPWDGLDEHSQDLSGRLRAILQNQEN

For `CCCCn1c(=O)c2ccccc2n2c(SCCS(=O)(=O)c3ccccc3)nnc12`, the IC50 [1] was > 99 µM (inactive) and the IC50 [2] was > 99 µM (inactive).
With `Nc1nnc(-c2ccccc2)c(N)n1` the Ki [3] was 39.8 µM (active) and the Ki [4] was 20 µM (active).
In the case of `Nc1nc(Nc2ccc(S(N)(=O)=O)cc2)nn1C(=O)c1c(F)cccc1F` [JNJ-7706621], the Ki [5] is reported as 2 µM (active), the Ki [6] is reported as 100 nM (active) and the Ki [7] is reported as 1.58 µM (active). The Ki [8] was 2 µM (active), the Ki [9] was 2 µM (active) and the Ki [10] was 100 nM (active). For the same molecule, the Ki [11] was 794 nM (active), the Ki [12] was > 1.58 µM (inactive) and the Ki [13] was 794 nM (active). For the same molecule, the Ki [14] was 25.1 nM (active), the Ki [15] was 251 nM (active) and the Ki [16] was 631 nM (active). For the same molecule, the Ki [17] was 158 nM (active), the Ki [18] was > 2 µM (inactive) and the Ki [19] was 501 nM (active).
With `CCc1nc2sc3c(c2c2nnc(S)n12)CCC(C)C3` (stereo not given) the IC50 [20] was > 99 µM (inactive) and the IC50 [21] was > 99 µM (inactive).
With `COC(=O)C1=C(C)N(Cc2ccccc2)C(NCc2cccc(C(F)(F)F)c2)=N[C@H]1c1cccc(F)c1` the IC50 [22] was > 20 µM (inactive), the EC50 [23] was 9.71 µM (active) and the AC50 [24] was 6.83 µM (active). For the same molecule, the EC50 [25] was 5.26 µM (inconclusive), the IC50 [26] was 1.85 µM (active) and the EC50 [27] was > 54.7 µM (inactive). The IC50 [28] was 11.3 µM (inactive), the EC50 [29] was 9.59 µM (inconclusive) and the EC50 [30] was 11 µM (active). The EC50 [31] was > 150 µM (inconclusive), the EC50 [32] was > 120 µM (not active) and the EC50 [33] was > 133 µM (inconclusive). For the same molecule, the EC50 [34] was 8.28 µM (active), the EC50 [35] was 4.9 µM (active) and the EC50 [36] was > 54.7 µM (inactive).
In the case of `COc1ccc(-c2nc3ccccc3c(=O)n2CCOc2ccc(C)cc2C)cc1`, the EC50 [37] is reported as 15.2 µM (active).
With `CCOC(=O)c1c(NC(=O)C2C(C)(C)C2(C)C)sc2cnccc12` the Ki [38] was 6.31 µM (active), the Ki [39] was 2.51 µM (active) and the Ki [40] was 3.98 µM (active). For the same molecule, the Ki [41] was 6.31 µM (active).
In the case of `CCCCn1c(N)c(N(CCC(C)C)C(=O)C2CCCN(C(=O)c3ccc(Cl)cc3)C2)c(=O)[nH]c1=O` (stereo not given), the EC50 [42] is reported as 21.3 µM (active).
With `S=C(NCc1ccccn1)Nc1ccc(Br)cc1Cl` the IC50 [43] was 1.58 µM (active), the IC50 [44] was > 66 µM (inactive) and the IC50 [45] was > 66 µM (inactive). For the same molecule, the IC50 [46] was 3.84 µM (active).
In the case of `COc1ccc(Oc2c(Cl)cnn(Cc3cccc4ccccc34)c2=O)c(F)c1`, the IC50 [47] is reported as 6.24 µM (active).
With `CCOc1cc(N2CCOCC2)c(OCC)cc1NC(=O)COC(=O)[C@H](Cc1c[nH]c2ccccc12)NC(C)=O` the AC50 [48] was 19.5 µM (active).
For `Cn1cc(Nc2ncc(Cl)c(Nc3ccccc3)n2)cn1`, the Ki [49] was 1.58 µM (active) and the Ki [50] was 2 µM (active).
